Results on seven molecules are retold here after PubChem BioAssay (NCI).

What all share (test): DTP human tumour cell line panel, 48 h
The subject of assay [1] is CCRF-CEM leukemia.
Assay [2] deals with HCT-116 colon.
Assay [3] deals with HL-60(TB) leukemia.
Assay [4] concerns MCF7 breast.
The subject of assay [5] is MDA-MB-231 breast.
In assay [6] the test system is PC-3 prostate.
In assay [7] the test system is SK-MEL-2 melanoma.
Assay [8] deals with TK-10 renal.
In assay [9] the test system is UACC-257 melanoma.
Assay [10] relates to UO-31 renal.

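Assay format: 96-well plates, 48-hour exposure. Abbreviation: GI50, concentration required for 50% inhibition of growth. Definition used: TGI = concentration required for complete inhibition of growth.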

By GI50 is commonly meant the concentration that inhibits growth by half. As a reminder, the TGI is the concentration giving total growth inhibition. Turning to `CCCc1cc(=O)n2c(C(=O)Nc3cccc(C(=O)OCC)c3)c(C(=O)Nc3ccc(F)cc3)sc2n1`, the GI50 in assay [1] was over 140 µM; in assay [2] it was 1.06 µM; in [3], over 140 µM; in assay [4] it was over 140 µM; in assay [5] it was 1.6 µM; in [6], 45.9 µM. In addition, the GI50 in assay [7] is 6.83 µM; in assay [8] it was 5.72 µM; in [9], 54.1 µM; in assay [10] it was 7.27 µM. In addition, the TGI in assay [1] is over 140 µM; in [2] it was over 140 µM; in assay [3] it was over 140 µM; in assay [4] it was over 140 µM; in assay [5] it was 7.2 µM; in assay [6] it was over 140 µM. The TGI was 27.6 µM in assay [7], 22.1 µM in assay [8], over 140 µM in [9] and 42.6 µM in [10].

Turning to `COc1cc2ncnc(Nc3cccc(Cl)c3F)c2cc1OC(=O)N1CCN(C)C[C@H]1C`, the GI50 in assay [1] was over 55.9 µM; in assay [2] it was over 38.5 µM; in assay [3], over 47.3 µM; in assay [4], over 39 µM; in assay [5], 25.3 µM; in assay [6] it was 35.3 µM. Besides, the GI50 is over 43.6 µM in assay [7], 0.18 µM in assay [8], over 41.1 µM in [9] and 6.89 µM in assay [10]. Besides, the TGI is over 100 µM in assay [1]; over 56.9 µM in assay [2]; over 70.5 µM in [3]; over 77.3 µM in [4]; over 59.5 µM in [5]; over 93.3 µM in [6]. The TGI in assay [7] is over 61.1 µM; in [8], 20 µM; in [9], over 59.2 µM; in assay [10], over 50.2 µM.

On to `Cn1nc(C(F)(F)F)cc1-c1c[nH]c(OCc2ccc(Cl)cc2)c(-c2ccc(Cl)c(C(F)(F)F)c2)c1=O`, for which the GI50 in assay [1] was 0.998 µM; in [2], 0.927 µM; in assay [3] it was 1.09 µM; in [4], 1.22 µM; in [5], 1.13 µM; in [6], 0.756 µM. In addition, the GI50 in [7] was 0.761 µM; in assay [8], 1.8 µM; in assay [9], 0.919 µM; in [10], 1.05 µM. For the same molecule, the TGI in assay [1] was over 50 µM; in assay [2], 4.51 µM; in assay [3], 2.55 µM; in assay [4] it was over 50 µM; in assay [5], 3.51 µM; in [6], 4.32 µM. Also, the TGI in [7] is 2.52 µM; in [8], over 36.6 µM; in [9], 3.6 µM; in assay [10], 3.56 µM.

`Cn1cc(C2=C(c3c4n(c5ccccc35)CCC(CN)C4)C(=O)NC2=O)c2ccccc21` (stereo not given): the GI50 was 2.43 µM in assay [1]; 2 µM in assay [2]; 4.13 µM in assay [3]; 2.06 µM in assay [4]; 2.53 µM in [5]; 2.77 µM in assay [6]. Besides, the GI50 is 4.15 µM in assay [7], 2.62 µM in assay [8], 3.23 µM in assay [9] and 3.25 µM in [10]. Moreover, the TGI in [1] was determined as 7.23 µM; in [2] it was 5.77 µM; in assay [3] it was 8.77 µM; in [4], 6.5 µM; in assay [5], 6.05 µM; in assay [6], 6.59 µM. In addition, the TGI was 7.92 µM in assay [7], 5.58 µM in assay [8], 6.68 µM in [9] and 6.58 µM in assay [10].

In the case of `C=C1C(=O)O[C@H]2[C@H]1CC/C(C=Nc1c(N)cc(C(F)(F)F)cc1C(F)(F)F)=C\CC[C@@]1(C)O[C@@H]21`, the GI50 is 0.55 µM in assay [1]; 1.06 µM in [2]; 0.801 µM in assay [3]; 0.498 µM in [4]; 1.38 µM in assay [5]; 1.54 µM in assay [6]. For the same molecule, the GI50 in assay [7] is 1.41 µM; in assay [8] it was 1.38 µM; in [9], 1.59 µM; in assay [10] it was 1.07 µM. For the same molecule, the TGI in [1] is over 100 µM; in [2], 2.52 µM; in [3] it was 27.2 µM; in assay [4], 2.34 µM; in assay [5] it was 3.79 µM; in assay [6], 4.4 µM. Further, the TGI was determined as 3.12 µM in [7], 2.69 µM in [8], 3.14 µM in [9] and 2.38 µM in assay [10].

Take `N#Cc1c(N2CCOCC2)nc(=S)[nH]c1-c1ccccc1`: the GI50 in [1] was 30.9 µM; in assay [2], 42.4 µM; in assay [3], 15.3 µM; in assay [4], 4.89 µM; in assay [5], 7.86 µM; in assay [6], 2.1 µM. For the same molecule, the GI50 is 4.5 µM in assay [7], 20.7 µM in assay [8], 49.8 µM in assay [9] and 4.57 µM in [10]. In addition, the TGI in assay [1] was over 100 µM; in [2], over 100 µM; in assay [3], over 100 µM; in assay [4] it was over 100 µM; in assay [5], over 100 µM; in assay [6], 8.79 µM. Besides, the TGI in [7], in assay [8], in [9] and in assay [10] was over 100 µM throughout.

Turning to `COc1cc(/C(=C2/O[C@@H]([C@H]3COC(C)(C)O3)[C@H]3OC(C)(C)O[C@@H]23)c2ccc3ccccc3c2)cc(OC)c1OC`, the GI50 was 48.3 µM in assay [1]; 2.51 µM in assay [2]; 74.9 µM in assay [3]; 3.59 µM in assay [4]; 6.28 µM in assay [5]; 5.71 µM in [6]. The GI50 in assay [7] is 1.53 µM; in assay [8] it was 3.2 µM; in [9] it was 4.28 µM; in assay [10], 3.47 µM. Also, the TGI in assay [1] was over 100 µM; in assay [2], 5.7 µM; in assay [3], over 100 µM; in assay [4] it was 14.4 µM; in [5] it was 69.7 µM; in [6] it was over 100 µM. For the same molecule, the TGI in assay [7] is 4.12 µM; in assay [8], 7.2 µM; in assay [9] it was 67.9 µM; in assay [10], over 100 µM.
